Laboratory results taken from PMC9127185, “A Pyridazinone Compound for Effectively Treating Non-alcoholic Steatohepatitis by Targeting THRβ” (Frontiers in Chemistry, 2022).
Entries after “also recorded” stand apart in the source; their conditions may differ.

How the values were obtained:
[1] = Tissue distribution study after oral administration; assay type: in vivo, C57BL/6J mice; details: for Time of highest tissue level: oral
Method: The frozen mice plasma samples and tissue homogenates were thawed at room temperature, vortexed for 1 min, then taken out in 10-μl aliquots in a 1.50-ml centrifuge tube, and this was then mixed with 1 μl of standard solution and 50 μl of internal standard (IS) solution, which was then dissolved and diluted with acetonitrile. Subsequently, it was vortexed for 3 min and at 14,000 rpm centrifugation for 5 min. The adopted 1 μl of the supernatant was used for sample injection analysis.
A total of 24 male C57/BL6J mice were divided into 4 groups at random, with 6 mice in a group for tissue distribution at 0.25, 1, 6, and 24 h. They were given YWS01125 after oral administration of 20 mg/kg, and then sacrificed at 0.25, 1, 6, and 24 h. Tissues from the heart, liver, spleen, lungs, kidneys, stomach, small intestine, colon, fat, muscle, testes, and brain were taken and rinsed with saline solution to remove the blood and connective tissues ([Geng et al., 2015]; [He et al., 2017]; [Jiang et al., 2017]), then put on the filter paper and weighed, quickly. Each tissue sample was homogenized by using five times of the tissue weight saline (w/v). All homogenates were stored at−80 °C until analysis.
The tissue distributions of YWS01125 were investigated in C57BL/6J mice at 0.25, 1, 6, and 24 h after oral administration. The examined organs or tissues included the heart, liver, spleen, lungs, kidneys, stomach, small intestine, colon, fat, muscle, testes, and brain. The linear ranges, correlation coefficients, weight factors, and regression equations for all analytes in the mouse plasma and tissue homogenates are shown in Table 5. The concentration of each tissue at 0.25 h is indicated as stomach > kidneys > liver > colon > small intestine > testes > heart > spleen > lungs > fat; concentration of each tissue at 1 h is small intestine > colon > liver > stomach > kidneys > lungs > heart > fat > testes; concentration of each tissue at 6 h is small intestine > colon > stomach > liver > kidneys > heart; and concentration of each tissue at 24 h is that the whole tissues were not detected (Table 6). […] The content of the compound in the stomach was much higher than that in any other organ. The highest levels were reached 0.25 h after oral administration, then decreased thereafter. For the heart, liver, kidneys, lungs, small intestine, colon, and fat, the highest level was reached 1 h after oral administration, and it reached the highest levels at 0.25 h in the spleen, stomach, and testes.

[2] = Stability of liver microsomes study (mouse); assay type: in vitro ADME; details: mouse liver microsomes 0.50 mg/ml, NADPH-generating system, 37°C, 0-90 min
Method: Hypersil GOLD C18 column (4.6 × 150 mm, 5 μm, Thermo). A 0.025% ammonia aqueous solution in water (solvent A) and acetonitrile (solvent B) were used as mobile phases with gradient elution. The gradient was as follows: 0.01 min, 15% B; 5 min, 20% B; 12 min, 80% B; 16 min, 80% B; 16.01 min, 15% B; 19 min, 15% B; and 19.01 min, stopped. The timing interval was 19 min, and the flow rate was set at 1 ml/min.
The incubation system was carried out in 0.05 M Tris/KCl buffer (PH = 7.4) and included the following: pyrazinone compounds dissolved with dimethyl sulfoxide (DMSO), mouse liver microsomes and human liver microsomes at 0.50 mg/ml, 1.30 mM nicotinamide adenine dinucleotide sodium phosphate (NADP), 3.30 mM glucose-6-phosphate disodium salt (G-6-P), 0.40 units/mL glucose-6-phosphate dehydrogenase (G-6-PDH), and 3.30 mM magnesium chloride. […] After preincubation for 3 min in an 850-rpm blender (37°C), liver microsomes were added to initiate the incubation reaction (37°C). The incubation time was 0, 30, 60, and 90 min. After incubation, an equal volume of cold acetonitrile was added to stop the reaction, and an internal standard (0.05 mg/ml acetaminophen solution) was added. The samples were centrifuged at 10,000 rpm for 10 min to precipitate proteins ([Day et al., 2017]; [Manne et al., 2018]), and the 10 µL of the supernatant was taken for HPLC analysis.

THRβ = target: T1, THRβ (Homo sapiens, UniProt P10828); assay: Selectivity and activity for THRβ; details: in words, no data shown
T1 sequence (P10828 1-461): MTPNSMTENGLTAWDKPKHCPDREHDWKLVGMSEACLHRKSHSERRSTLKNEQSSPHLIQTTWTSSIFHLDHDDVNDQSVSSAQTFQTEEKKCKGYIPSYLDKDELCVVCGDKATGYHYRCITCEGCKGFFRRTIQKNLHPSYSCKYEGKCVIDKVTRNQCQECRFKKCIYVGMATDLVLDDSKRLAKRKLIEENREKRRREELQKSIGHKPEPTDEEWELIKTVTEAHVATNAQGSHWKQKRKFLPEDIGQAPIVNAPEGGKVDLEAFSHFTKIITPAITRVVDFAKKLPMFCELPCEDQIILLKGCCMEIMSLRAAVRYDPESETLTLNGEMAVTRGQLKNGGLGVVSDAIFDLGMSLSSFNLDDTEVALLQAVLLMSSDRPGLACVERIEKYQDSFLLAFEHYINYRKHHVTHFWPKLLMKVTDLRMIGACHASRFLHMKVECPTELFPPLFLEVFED

acute liver injury model = assay: Acute liver injury model; assay type: in vivo, rat; details: in words, no data shown
[3] = tested on: acute hyperlipidemia mice; assay: Acute hyperlipidemia mice; assay type: in vivo; details: in words, no data shown
NASH = NASH pharmacodynamic study; assay type: in vivo; details: in words, no data shown
[4] = after oral administration, all time points

Concentration in the brain [1, 4]: not detected
Concentration in the muscle [1, 4]: not detected
Time of highest tissue level ([1]; heart, liver, kidneys, lungs, small intestine, colon, fat): 1 h
Colon tissue concentration ([1]; oral 20 mg/kg, 15 min): 46.70 ± 2.27
Fat tissue concentration ([1]; oral 20 mg/kg, 15 min): 9.37 ± 0.88
Heart tissue concentration ([1]; oral 20 mg/kg, 15 min): 7.00 ± 1.05
Kidneys tissue concentration ([1]; oral 20 mg/kg, 15 min): 129.83 ± 18.31
Liver tissue concentration ([1]; oral 20 mg/kg, 15 min): 69.93 ± 11.25
Lungs tissue concentration ([1]; oral 20 mg/kg, 15 min): 5.51 ± 1.22
Small intestine tissue concentration ([1]; oral 20 mg/kg, 15 min): 31.30 ± 6.38
Spleen tissue concentration ([1]; oral 20 mg/kg, 15 min): 6.26 ± 0.60
Stomach tissue concentration ([1]; oral 20 mg/kg, 15 min): 378.67 ± 36.89
Testes tissue concentration ([1]; oral 20 mg/kg, 15 min): 15.37 ± 2.15
Colon tissue concentration ([1]; oral 20 mg/kg, 1 h): 357.67 ± 35.31
Fat tissue concentration ([1]; oral 20 mg/kg, 1 h): 8.69 ± 1.45
Heart tissue concentration ([1]; oral 20 mg/kg, 1 h): 14.41 ± 5.97
Kidneys tissue concentration ([1]; oral 20 mg/kg, 1 h): 230.50 ± 15.53
Liver tissue concentration ([1]; oral 20 mg/kg, 1 h): 283.67 ± 40.72
Lungs tissue concentration ([1]; oral 20 mg/kg, 1 h): 60.76 ± 4.97
Small intestine tissue concentration ([1]; oral 20 mg/kg, 1 h): 373.00 ± 33.88
Stomach tissue concentration ([1]; oral 20 mg/kg, 1 h): 247.17 ± 24.96
Testes tissue concentration ([1]; oral 20 mg/kg, 1 h): 6.08 ± 4.70
Colon tissue concentration ([1]; oral 20 mg/kg, 6 h): 60.23 ± 3.87
Heart tissue concentration ([1]; oral 20 mg/kg, 6 h): 4.01 ± 1.27
Kidneys tissue concentration ([1]; oral 20 mg/kg, 6 h): 12.73 ± 1.65
Liver tissue concentration ([1]; oral 20 mg/kg, 6 h): 16.63 ± 1.72
Small intestine tissue concentration ([1]; oral 20 mg/kg, 6 h): 61.03 ± 4.06
Stomach tissue concentration ([1]; oral 20 mg/kg, 6 h): 54.49 ± 10.20
Time of highest tissue level ([1]; spleen, stomach, testes): 0.25 h
Metabolic stability / metabolite formation in liver microsomes [2]: no metabolites; also recorded: stable
SMILES: N#Cc1cn(-c2cc(Cl)c(Oc3cc(C4CCC4)c(=O)[nH]n3)c(Cl)c2)c(=O)[nH]c1=O [YWS01125, 1-(3,5-dichloro-4-((5-cyclobutyl-6-oxo-1,6-dihydropyridazin-3-yl)oxy)phenyl)-2,4-dioxo-1,2,3,4-tetrahydropyrimidine-5-carbonitrile]
Selectivity and activity for THRβ (THRβ): excellent activity; also recorded: best selectivity and activity
Effect in acute liver injury model (acute liver injury model): hepatoprotective effect
Effect on acute hyperlipidemia mice [3]: lipid-lowering function
Effect on NASH (NASH): alleviation of NASH
